target: T1, wildtype HIV-1 protease (Human immunodeficiency virus type 1 group M subtype B, UniProt P04585); experiment: Assay for Inhibition of Microbial Expressed HIV Protease (Pepcleav); format: biochemical
T1 construct: preincubated with the HIV-1 protease (wild type) enzyme in assay buffer; made in house; host or cells: Escherichia coli
Experimental: Assay for Inhibition of Microbial Expressed HIV Protease (“Pepcleav”)
Studies of the inhibition of the wildtype HIV-1 protease (which was expressed in Escherichia coli) were carried out with a peptide substrate [Val-Ser-Gln-Asn-(βnaphthyl)Ala-Pro-Ile-Val (SEQ ID NO: 1)]. The inhibitor was first preincubated with the HIV-1 protease (wild type) enzyme in assay buffer (50 mM sodium acetate, pH 5.5, 100 mM NaCl, and 0.1% BSA) for 30 minutes at room temperature. Substrate was added to 400 micromolar in a total volume of 20 microliters containing 20 picomolar HIV-1 protease (final) and the reaction was incubated for 1 hour at 30° C. The reaction was quenched with the addition of formic acid and indinavir to 0.012% and 150 nM final concentrations, respectively. The product formation was determined after separation of product and substrate on a Zorbax Eclipse XDB-C18 column connected to an API 4000 mass spectrometer (Applied Biosystems) with multiple reaction monitoring (transitions were 644.5/428.9 and 615.4/422.2 (M1/M3) for product and indinavir respectively). The extent of inhibition of the reaction was determined from the peak area of the products. Analysis of the products, independently synthesized, provided quantitation standards and confirmation of the product composition.

Row | SMILES | IC50 [nM]
1 | COC(=O)N[C@H](C(=O)Nc1ccccc1CC[C@@H]1CN[C@H](c2nc3ccccc3[nH]2)CO1)C(c1ccccc1)c1ccccc1 [Example 1, N-(2-{2-[(2R,5R)-5-(1H-benzimidazol-2-yl)morpholin-2-yl]ethyl}phenyl)-Nα-(methoxycarbonyl)-β-phenyl-L-phenylalaninamide] | 0.0374
2 | COC(=O)N[C@H](C(=O)Nc1ccccc1CC[C@@H]1CN[C@H](c2nc3ccccc3n2C)CO1)C(c1ccccc1)c1ccccc1 [Example 2, methyl N-[(1S)-1-benzhydryl-2-[[2-[2-[(2R,5R)-5-(1-methylbenzimidazol-2-yl)morpholin-2-yl]ethyl]phenyl]amino]-2-oxo-ethyl]carbamate] | 7.96
3 | COC(=O)N[C@H](C(=O)Nc1ccccc1CC[C@@H]1CN[C@H](c2nc3cccc(C)c3[nH]2)CO1)C(c1ccccc1)c1ccccc1 [Example 3, methyl N-[(1S)-1-benzhydryl-2-[[2-[2-[(2R,5R)-5-(7-methyl-1H-benzimidazol-2-yl)morpholin-2-yl]ethyl]phenyl]amino]-2-oxo-ethyl]carbamate] | 0.0639
4 | COC(=O)N[C@H](C(=O)Nc1ccccc1CC[C@@H]1CN[C@H](c2nc3ccc(C)cc3[nH]2)CO1)C(c1ccccc1)c1ccccc1 [Example 4, methyl N-[(1S)-1-benzhydryl-2-[[2-[2-[(2R,5R)-5-(6-methyl-1H-benzimidazol-2-yl)morpholin-2-yl]ethyl]phenyl]amino]-2-oxo-ethyl]carbamate] | 0.0923
5 | COC(=O)N[C@H](C(=O)Nc1ccccc1CC[C@@H]1CN[C@H](c2nc3ccncc3[nH]2)CO1)C(c1ccccc1)c1ccccc1 [Example 5, methyl N-[(1S)-1-benzhydryl-2-[[2-[2-[(2R,5R)-5-(3H-imidazo[4,5-c]pyridin-2-yl)morpholin-2-yl]ethyl]phenyl]amino]-2-oxo-ethyl]carbamate] | 7.41
6 | COC(=O)N[C@H](C(=O)Nc1ccccc1CC[C@@H]1CN[C@H](c2nc3ccc(OC)cc3[nH]2)CO1)C(c1ccccc1)c1ccccc1 [Example 6, methyl N-[(1S)-1-benzhydryl-2-[[2-[2-[(2R,5R)-5-(6-methoxy-1H-benzimidazol-2-yl)morpholin-2-yl]ethyl]phenyl]amino]-2-oxo-ethyl]carbamate] | 0.334
7 | COC(=O)N[C@H](C(=O)Nc1ccccc1CC[C@@H]1CN[C@H](c2nc3ccc(S(C)(=O)=O)cc3[nH]2)CO1)C(c1ccccc1)c1ccccc1 [Example 7, methyl N-[(1S)-1-benzhydryl-2-[[2-[2-[(2R,5R)-5-(6-methylsulfonyl-1H-benzimidazol-2-yl)morpholin-2-yl]ethyl]phenyl]amino]-2-oxo-ethyl]carbamate] | 37.1
8 | COC(=O)N[C@H](C(=O)Nc1ccccc1CC[C@@H]1CN[C@H](c2nc3ccc(C(F)(F)F)cc3[nH]2)CO1)C(c1ccccc1)c1ccccc1 [Example 8, methyl N-[(1S)-1-benzhydryl-2-oxo-2-[[2-[2-[(2R,5R)-5-[6-(trifluoromethyl)-1H-benzimidazol-2-yl]morpholin-2-yl]ethyl]phenyl]amino]ethyl]carbamate] | 0.504
9 | COC(=O)N[C@H](C(=O)Nc1ccccc1CC[C@@H]1CN[C@H](c2nc3cc(C)c(C)cc3[nH]2)CO1)C(c1ccccc1)c1ccccc1 [Example 9, methyl N-[(1S)-1-benzhydryl-2-[[2-[2-[(2R,5R)-5-(5,6-dimethyl-1H-benzimidazol-2-yl)morpholin-2-yl]ethyl]phenyl]amino]-2-oxo-ethyl]carbamate] | 0.0516
10 | COC(=O)N[C@H](C(=O)Nc1ccccc1CC[C@@H]1CN[C@H](c2nc3ccc(C#N)cc3[nH]2)CO1)C(c1ccccc1)c1ccccc1 [Example 10, methyl N-[(1S)-1-benzhydryl-2-[[2-[2-[(2R,5R)-5-(6-cyano-1H-benzimidazol-2-yl)morpholin-2-yl]ethyl]phenyl]amino]-2-oxo-ethyl]carbamate] | 1.59
